Experimental data reported in patent US9896433B2, “Antiviral compounds” (priority 2013, dated 2018).

Tests used:
Test in all cases: microbe, parasite or virus in culture
[1] = system: Pseudotyped HCV GT1a particles (HCVpp, H77 strain E1/E2); assay type: cell-based, Hepatitis C virus GT1a H77 strain; conditions: Hepatitis C virus, 72 h, read-out: HCVpp GT-1a (EC50, μM)
[2] = system: Pseudotyped HCV GT1b particles (HCVpp, Con1 strain E1/E2); assay type: cell-based, Hepatitis C virus GT1b Con1 strain; conditions: Hepatitis C virus, 72 h, read-out: HCVpp GT-1b (EC50, μM)
[3] = system: pseudotyped VSV G particles (VSVpp); assay type: cell-based; conditions: Vesicular stomatitis virus, 72 h, read-out: VSVpp (EC50, μM)

| SMILES | EC50 [1] [µM] | EC50 [2] [µM] | EC50 [3] [µM] |
| --- | --- | --- | --- |
| Nc1nc(Nc2ccnc(Cl)c2)n[nH]1 [Compound 1, N^3-(2-Chloro-pyridin-4-yl)-1H-[1,2,4]triazole-3,5-diamine] | 2.76 | 48.9 | ≥ 100 |
| Nc1nc(Nc2ccc(C(F)(F)F)nc2)n[nH]1 [Compound 2, N^3-(6-Trifluoromethyl-pyridin-3-yl)-1H-[1,2,4] triazole-3,5-diamine] | 75.4 | ≥ 100 | ≥ 100 |
| Nc1nc(Nc2cc(Cl)nc(Cl)c2)n[nH]1 [Compound 3, N^3-(2,6-Dichloro-pyridin-4-yl)-1H-[1,2,4]triazole-3,5-diamine] | 0.191 | 7.08 | ≥ 100 |
| Nc1nc(Nc2cccc(C(F)(F)F)n2)n[nH]1 [Compound 4, N^3-(6-Trifluoromethyl-pyridin-2-yl)-1H-[1,2,4] triazole-3,5-diamine] | ≥ 100 | ≥ 100 | ≥ 100 |
| CC(C)(C)c1csc(Nc2n[nH]c(N)n2)n1 [Compound 5, N^3-(4-tert-Butyl-thiazol-2-yl)-1H-[1,2,4]triazole-3,5-diamine] | ≥ 100 |  | ≥ 100 |
| Nc1nc(Nc2cc(C(F)(F)F)ccn2)n[nH]1 [Compound 6, N^3-(4-Trifluoromethyl-pyridin-2-yl)-1H-[1,2,4] triazole-3,5-diamine] | 62.2 |  | ≥ 100 |
| Nc1nc(Nc2csc(Cl)c2)n[nH]1 [Compound 7, N^3-(5-Chloro-thiophen-3-yl)-1H-[1,2,4]triazole-3,5-diamine] | 16.4 |  | ≥ 100 |
| Cn1nc(Cl)cc(Nc2n[nH]c(N)n2)c1=O [Compound 8, 4-(5-Amino-1H-[1,2,4]triazol-3-ylamino)-6-chloro-2-methyl-2H-pyridazin-3-one] |  | ≥ 100 | ≥ 100 |
| Nc1nc(Nc2ccc3c(=O)[nH]ncc3c2)n[nH]1 [Compound 9, 6-(5-Amino-1H-[1,2,4]triazol-3-ylamino)-2H-phthalazin-l-one] |  | 4.71 | ≥ 100 |
| Cn1ncc2cc(Nc3n[nH]c(N)n3)ccc2c1=O [Compound 10, 6-(5-Amino-1H-[1,2,4]triazol-3-ylamino)-2-methyl-2H-phthalazin-1-one] |  | 3.68 | ≥ 100 |
| Nc1nc(Nc2ccc3nccn3c2)n[nH]1 [Compound 11, N^3-Imidazo[1,2-a]pyridin-6-yl-1H-[1,2,4]triazole-3,5-diamine] | 22.3 |  | ≥ 100 |
| Nc1nc(Nc2ccn3ccnc3c2)n[nH]1 [Compound 12, N^3-Imidazo[1,2-a]pyridin-7-yl-1H-[1,2,4]triazole-3,5-diamine] |  | > 100 | > 100 |
